# Test results from patent US20090227816A1, “Process for preparing polybrominated compounds” (BROMINE COMPOUNDS LTD., priority 2006, published 2009).
# Assay type: physicochemical
# Procedure: The solubility of Deca in bromine was determined as 2.64 g Deca in 100 g bromine at 20° C.
compound,measurement,value
"Brc1c(Br)c(Br)c(Oc2c(Br)c(Br)c(Br)c(Br)c2Br)c(Br)c1Br [Deca, decabromodiphenyl ether]",solubility of Deca in bromine,2.64 g Deca in 100 g bromine
